Data as given in ChEMBL document CHEMBL2407004, “3-Acyl-5-hydroxybenzofuran derivatives as potential anti-estrogen breast cancer agents: a combined experimental and theoretical investigation” (Bioorg Med Chem Lett, 2013).

tested on: MCF7; assay: Antiproliferative activity against human MCF7 cells after 48 hrs by MTT assay; assay type: functional, cell-based; details: MCF7, 48 h

| SMILES | IC50 |
| --- | --- |
| O=C(/C=C/c1cccc(Cl)c1)c1coc2cc(F)c(O)cc12 | 644 µM |
| COc1ccc(/C=C/C(=O)c2coc3cc(F)c(O)cc23)cc1 | 814 µM |
| COc1cc2occ(C(=O)c3ccc(-c4ccccc4)cc3)c2cc1O | 1660 µM |
| COc1cc2occ(C(=O)/C=C/c3ccc4c(c3)OCO4)c2cc1O | 2110 µM |

These reach a lower IC50. Values come first.

| IC50 | SMILES |
| --- | --- |
| 464 µM | COc1cc2occ(C(=O)/C=C/c3cccc(Cl)c3)c2cc1O |
| 167 µM | COc1cc2occ(C(=O)/C=C/c3ccccc3)c2cc1O |
| 43.1 µM | COc1cc2occ(C(=O)c3cccc(NC(C)=O)c3)c2cc1O |
| 12.3 µM | CC/C(=C(\c1ccccc1)c1ccc(OCCN(C)C)cc1)c1ccccc1 [TAMOXIFEN] |
